Publication PMC11602115 (Journal of Medicinal Chemistry, 2017)

Columns and labels:
95 GPCR profile = experiment: Wider binding screen (95 GPCR profile, MDS Pharma); conditions: 95 GPCR profile (MDS Pharma Inc.)
Description: [15] 95 GPCR profile (MDS Pharma Inc.).

Dog PK (iv and oral) = format: in vivo, Beagle dogs
[1] = Stability in human microsome preparations; format: in vitro ADME; conditions: incubation at 37 °C, human microsomes; read-out: human MS, T1/2
Description: Table 1 Screening Data for Selected Analogues ^a | column: human and rat MS, T1/2 (min) ^g

hERG channel = hERG channel (Homo sapiens, UniProt Q12809); experiment: hERG patch clamp assay; format: cell-based; conditions: read-out: IC50 hERG channel functional activity
Sequence of hERG channel (Q12809 whole entry): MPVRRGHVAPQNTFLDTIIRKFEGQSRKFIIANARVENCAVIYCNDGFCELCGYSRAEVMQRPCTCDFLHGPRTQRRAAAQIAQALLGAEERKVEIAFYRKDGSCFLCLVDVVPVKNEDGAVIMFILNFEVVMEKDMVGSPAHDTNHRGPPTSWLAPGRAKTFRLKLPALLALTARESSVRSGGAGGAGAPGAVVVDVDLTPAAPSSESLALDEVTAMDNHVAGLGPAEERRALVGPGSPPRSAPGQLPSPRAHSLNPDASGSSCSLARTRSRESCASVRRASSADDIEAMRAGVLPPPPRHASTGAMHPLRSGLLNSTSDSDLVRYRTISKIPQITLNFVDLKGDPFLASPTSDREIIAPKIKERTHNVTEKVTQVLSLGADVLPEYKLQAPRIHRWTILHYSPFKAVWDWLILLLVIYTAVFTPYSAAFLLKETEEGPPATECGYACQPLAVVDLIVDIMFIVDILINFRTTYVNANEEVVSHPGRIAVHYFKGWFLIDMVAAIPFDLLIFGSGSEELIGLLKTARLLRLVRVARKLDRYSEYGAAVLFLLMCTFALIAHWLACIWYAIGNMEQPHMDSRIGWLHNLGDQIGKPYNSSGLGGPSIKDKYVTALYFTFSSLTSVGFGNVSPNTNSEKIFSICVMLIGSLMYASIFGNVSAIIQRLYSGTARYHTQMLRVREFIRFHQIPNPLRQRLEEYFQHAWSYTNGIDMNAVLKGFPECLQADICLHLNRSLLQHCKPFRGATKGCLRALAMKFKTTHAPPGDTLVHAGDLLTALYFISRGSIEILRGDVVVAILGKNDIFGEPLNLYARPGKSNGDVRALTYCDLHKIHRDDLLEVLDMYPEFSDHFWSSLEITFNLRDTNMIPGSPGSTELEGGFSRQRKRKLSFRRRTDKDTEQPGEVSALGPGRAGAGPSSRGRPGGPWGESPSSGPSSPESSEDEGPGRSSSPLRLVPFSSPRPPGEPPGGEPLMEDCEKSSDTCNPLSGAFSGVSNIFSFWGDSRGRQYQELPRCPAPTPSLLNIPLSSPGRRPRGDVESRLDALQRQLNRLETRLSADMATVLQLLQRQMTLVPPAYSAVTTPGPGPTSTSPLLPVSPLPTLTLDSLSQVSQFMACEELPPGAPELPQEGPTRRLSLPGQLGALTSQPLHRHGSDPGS

DP1 = DP1 (Homo sapiens, UniProt Q13258); experiment: Radioligand binding, DP1 ([3H]-PGD2); conditions: cloned human receptor; mean of two determinations
Sequence of DP1 (Q13258 whole entry): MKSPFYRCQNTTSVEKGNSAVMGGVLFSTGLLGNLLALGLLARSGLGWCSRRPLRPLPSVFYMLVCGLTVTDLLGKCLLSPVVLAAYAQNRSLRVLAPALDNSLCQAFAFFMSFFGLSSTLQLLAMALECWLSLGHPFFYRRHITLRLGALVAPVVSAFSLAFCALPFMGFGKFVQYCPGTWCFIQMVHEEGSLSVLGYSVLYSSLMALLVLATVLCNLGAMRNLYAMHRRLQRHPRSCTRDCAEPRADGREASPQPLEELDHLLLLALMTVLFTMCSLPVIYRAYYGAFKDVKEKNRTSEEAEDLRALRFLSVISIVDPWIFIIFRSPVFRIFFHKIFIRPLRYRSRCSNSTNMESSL
Experimental: (§1) Additional (non-IP) receptor binding assays were carried out by MDS Pharma (Taiwan) and CEREP (France).

CYP 2C19 = CYP 2C19 (Homo sapiens, UniProt P33261); experiment: Cytochrome P450 inhibition, CYP2C19; format: in vitro ADME
Sequence of CYP 2C19 (P33261 whole entry): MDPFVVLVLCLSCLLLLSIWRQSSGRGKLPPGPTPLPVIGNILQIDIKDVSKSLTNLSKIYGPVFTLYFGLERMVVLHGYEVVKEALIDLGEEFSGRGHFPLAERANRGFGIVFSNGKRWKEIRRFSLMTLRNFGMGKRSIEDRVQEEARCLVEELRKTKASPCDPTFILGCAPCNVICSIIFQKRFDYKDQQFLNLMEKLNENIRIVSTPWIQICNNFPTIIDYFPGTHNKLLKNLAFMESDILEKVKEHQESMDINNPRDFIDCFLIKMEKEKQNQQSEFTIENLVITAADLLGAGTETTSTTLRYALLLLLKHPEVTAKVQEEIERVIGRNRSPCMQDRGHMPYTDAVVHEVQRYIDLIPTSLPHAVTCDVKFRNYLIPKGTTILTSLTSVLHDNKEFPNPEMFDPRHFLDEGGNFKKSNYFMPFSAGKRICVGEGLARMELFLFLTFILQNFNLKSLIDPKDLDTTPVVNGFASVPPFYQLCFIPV

CYP 1A2 = CYP 1A2 (Homo sapiens, UniProt P05177); experiment: Cytochrome P450 inhibition, CYP1A2; format: in vitro ADME
Sequence of CYP 1A2 (P05177 whole entry): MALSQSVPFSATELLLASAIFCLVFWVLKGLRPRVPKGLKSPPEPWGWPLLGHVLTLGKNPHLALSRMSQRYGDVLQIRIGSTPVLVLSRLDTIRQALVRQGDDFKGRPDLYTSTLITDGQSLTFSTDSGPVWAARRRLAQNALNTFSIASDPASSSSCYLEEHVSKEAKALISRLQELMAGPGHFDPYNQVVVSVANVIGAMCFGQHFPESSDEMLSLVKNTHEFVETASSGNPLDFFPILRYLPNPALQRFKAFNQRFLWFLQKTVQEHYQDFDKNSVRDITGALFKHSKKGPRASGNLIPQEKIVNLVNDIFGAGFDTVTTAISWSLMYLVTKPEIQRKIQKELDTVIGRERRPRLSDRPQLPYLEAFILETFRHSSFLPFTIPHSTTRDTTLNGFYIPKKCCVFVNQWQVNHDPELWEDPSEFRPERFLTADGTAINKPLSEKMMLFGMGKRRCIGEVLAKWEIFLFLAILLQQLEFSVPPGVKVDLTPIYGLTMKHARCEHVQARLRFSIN

CYP 3A4 = CYP 3A4 (Homo sapiens, UniProt P08684); experiment: Cytochrome P450 inhibition, CYP3A4; format: in vitro ADME
Sequence of CYP 3A4 (P08684 whole entry): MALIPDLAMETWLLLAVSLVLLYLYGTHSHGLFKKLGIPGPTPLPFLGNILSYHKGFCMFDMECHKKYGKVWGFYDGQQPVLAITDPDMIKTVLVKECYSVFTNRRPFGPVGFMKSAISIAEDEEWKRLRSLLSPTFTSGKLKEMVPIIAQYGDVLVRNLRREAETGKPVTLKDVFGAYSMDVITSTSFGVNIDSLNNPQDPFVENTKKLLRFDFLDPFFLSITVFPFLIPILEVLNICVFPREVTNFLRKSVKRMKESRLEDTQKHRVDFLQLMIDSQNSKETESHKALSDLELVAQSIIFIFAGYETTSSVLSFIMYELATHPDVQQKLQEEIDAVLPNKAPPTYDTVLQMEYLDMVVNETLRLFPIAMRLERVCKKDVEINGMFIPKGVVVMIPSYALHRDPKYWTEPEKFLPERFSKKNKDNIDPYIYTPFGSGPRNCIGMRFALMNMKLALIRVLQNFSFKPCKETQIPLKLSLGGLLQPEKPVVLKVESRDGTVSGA

EP1 = biological target: T1, EP1 (Homo sapiens, UniProt P34995); experiment: cAMP HTRF agonist assay, EP1; format: cell-based
T1 sequence (P34995 1-402): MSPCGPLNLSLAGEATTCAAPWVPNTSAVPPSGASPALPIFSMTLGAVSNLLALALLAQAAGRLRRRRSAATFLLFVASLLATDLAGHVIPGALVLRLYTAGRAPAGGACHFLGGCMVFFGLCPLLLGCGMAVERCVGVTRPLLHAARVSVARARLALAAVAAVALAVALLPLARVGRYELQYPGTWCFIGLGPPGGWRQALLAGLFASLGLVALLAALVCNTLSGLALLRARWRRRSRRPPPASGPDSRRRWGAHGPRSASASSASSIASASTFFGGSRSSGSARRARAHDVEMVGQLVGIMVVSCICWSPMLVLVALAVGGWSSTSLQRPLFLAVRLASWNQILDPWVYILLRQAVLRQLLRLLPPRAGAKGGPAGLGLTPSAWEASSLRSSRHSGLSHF
Description: Table Sup2: Data with some comparator compounds in functional assays.
Compound DP1 EP1 EP2 EP3v6 EP4
EC50, µµµµM (% I.A) EC50, µµµµM (% I.A) EC50, µµµµM (% I.A) EC50, µµµµM (% I.A) EC50, µµµµM (% I.A)
n = 3 n = 2 n = 8 n = 6 n = 6 […]

IP [2] = biological target: T2, IP (Homo sapiens, UniProt P43119); experiment: Recombinant human IP receptor cAMP assay after elimination of receptor reserve (transient CHO); format: cell-based; parameters: expressed in transfected cells; conditions: following elimination of receptor reserve
T2 sequence (P43119 whole entry): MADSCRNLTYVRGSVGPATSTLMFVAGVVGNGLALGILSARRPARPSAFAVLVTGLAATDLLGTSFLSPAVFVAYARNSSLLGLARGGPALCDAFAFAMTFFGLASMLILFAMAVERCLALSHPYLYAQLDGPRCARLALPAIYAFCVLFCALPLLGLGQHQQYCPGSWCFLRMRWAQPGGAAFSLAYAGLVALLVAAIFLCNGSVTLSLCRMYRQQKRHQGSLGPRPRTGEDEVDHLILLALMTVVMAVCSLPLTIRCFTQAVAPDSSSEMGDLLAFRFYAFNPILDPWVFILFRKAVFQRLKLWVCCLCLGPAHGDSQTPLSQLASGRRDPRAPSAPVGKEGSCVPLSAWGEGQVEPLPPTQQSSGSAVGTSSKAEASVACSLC
Description: Additional In Vitro Assays
To determine the potency and efficacy of compounds in cAMP assays in the absence of receptor reserve effects, the cDNA sequence of the human IP receptor was subqcloned into an expression plasmid containing a ubiquitin promoter in place of the more commonly used CMV promoter. The ubiquitin […]
level of receptor expression after transfection into a suitable cell line. This plasmid was transiently transfected into CHO cells using lipofectamine, following standard protocols. The quantity of transfected plasmid DNA was titrated down from 16 µg to 1 ng per transfection using empty vector as carrier DNA.

CYP 2D6 = CYP 2D6 (Homo sapiens, UniProt P10635); experiment: Cytochrome P450 inhibition, CYP2D6; format: in vitro ADME
Sequence of CYP 2D6 (P10635 whole entry): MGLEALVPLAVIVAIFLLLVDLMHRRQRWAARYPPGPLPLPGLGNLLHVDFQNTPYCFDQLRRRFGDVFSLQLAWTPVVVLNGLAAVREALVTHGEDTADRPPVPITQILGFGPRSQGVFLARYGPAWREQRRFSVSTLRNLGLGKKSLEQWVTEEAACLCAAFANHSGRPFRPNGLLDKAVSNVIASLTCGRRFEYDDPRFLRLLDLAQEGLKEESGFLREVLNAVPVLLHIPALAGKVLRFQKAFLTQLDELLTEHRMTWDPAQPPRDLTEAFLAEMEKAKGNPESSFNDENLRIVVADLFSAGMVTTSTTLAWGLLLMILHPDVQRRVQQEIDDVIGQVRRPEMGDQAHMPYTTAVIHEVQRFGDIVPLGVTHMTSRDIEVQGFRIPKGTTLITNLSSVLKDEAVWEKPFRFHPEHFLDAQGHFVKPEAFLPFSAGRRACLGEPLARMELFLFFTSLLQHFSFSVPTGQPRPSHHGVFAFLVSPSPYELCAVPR

Rat PK (iv and oral) = format: in vivo; conditions: for AUC(0-inf) / bioavailability: Sprague-Dawley; for AUC(0-inf): after oral administration 10 mg/kg (5m 10.5); for bioavailability: po, 10 mg/kg; for unbound Cmax plasma concentration: single oral dose 30 mg/kg, based on 1% free fraction of the measured Cmax
EP2 = EP2 (Homo sapiens, UniProt P43116); experiment: Radioligand binding, EP2 ([3H]-PGE2); parameters: purchased MDS Pharma (Taiwan) and CEREP (France), contract assays; conditions: cloned human receptor; mean of two determinations
Sequence of EP2 (P43116 whole entry): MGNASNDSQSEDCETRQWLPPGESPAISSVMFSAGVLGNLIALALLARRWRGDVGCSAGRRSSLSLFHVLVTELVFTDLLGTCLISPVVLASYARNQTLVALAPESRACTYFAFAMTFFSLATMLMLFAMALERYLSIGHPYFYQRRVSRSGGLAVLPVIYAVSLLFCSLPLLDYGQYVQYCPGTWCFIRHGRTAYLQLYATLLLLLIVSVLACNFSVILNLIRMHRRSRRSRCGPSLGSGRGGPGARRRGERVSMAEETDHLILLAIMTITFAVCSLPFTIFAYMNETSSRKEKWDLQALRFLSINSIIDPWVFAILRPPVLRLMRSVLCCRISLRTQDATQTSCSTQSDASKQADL
Experimental: as §1

CYP 2C8 = CYP 2C8 (Homo sapiens, UniProt P10632); experiment: Cytochrome P450 inhibition, CYP2C8; format: in vitro ADME
Sequence of CYP 2C8 (P10632 whole entry): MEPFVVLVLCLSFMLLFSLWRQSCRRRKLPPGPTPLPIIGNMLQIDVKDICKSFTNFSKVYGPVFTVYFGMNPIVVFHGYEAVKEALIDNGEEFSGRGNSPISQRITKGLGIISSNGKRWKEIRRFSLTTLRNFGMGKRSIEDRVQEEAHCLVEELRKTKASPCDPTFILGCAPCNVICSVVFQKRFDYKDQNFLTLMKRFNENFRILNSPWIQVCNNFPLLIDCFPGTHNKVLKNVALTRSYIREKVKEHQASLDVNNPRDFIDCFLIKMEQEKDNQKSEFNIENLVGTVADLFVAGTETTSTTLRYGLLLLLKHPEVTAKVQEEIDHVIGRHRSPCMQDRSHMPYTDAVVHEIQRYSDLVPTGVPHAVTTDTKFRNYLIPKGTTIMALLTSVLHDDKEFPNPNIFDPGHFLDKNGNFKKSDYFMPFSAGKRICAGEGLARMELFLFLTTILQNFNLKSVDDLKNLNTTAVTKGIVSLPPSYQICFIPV

IP [3] = biological target: T2, IP; experiment: Radioligand binding, human IP ([3H]-iloprost); parameters: expressed in transfected cells; host or cells: CHO-K1 (crude membranes); conditions: cloned human receptor; read-out: Ki IP ([3H]-iloprost)
Experimental: CHO-K1 cells expressing recombinant IP receptors were harvested, washed with ice-cold phosphate buffered saline, pH 7.4 (PBS), and then centrifuged at 48 000g for 20 min at 4 °C. The resulting cell pellet was then resuspended in ice-cold PBS containing 20 mM HEPES, pH 7.4, and 0.1 mM EDTA, homogenized on ice using a Brinkman Polytron, and centrifuged (48 000g for 20 min at 4 °C). This resuspension and centrifugation process was repeated one further time. Crude membrane pellets were stored at −80 °C until used for radioligand binding assays.
Assay incubations were terminated by rapid filtration through PerkinElmer GF/C filtration plates pretreated with 0.3% PEI, under vacuum pressure using a 96-well Packard filtration apparatus, followed by multiple washes with ice-cold wash buffer (PBS containing 20 mM HEPES and 0.1 mM EDTA, pH 7.4). Plates were then dried at 45 °C for a minimum of 2 h. Finally, 25 μL of BetaScint scintillation cocktail was added to each well and plates were counted in a Packard TopCount scintillation counter. In each competition study, test compounds were dosed at 10 concentrations with triplicate determinations at each test concentration.

[4] = terminal half-life after iv 2 mg/kg (5m 2.1)
[5] = total clearance, iv 2 mg/kg (5m 2.1)

With `O=C(O)COC[C@H]1CC[C@H](COC(=O)N(c2ccccc2)c2ccc(Cl)cc2)CC1` [5c, Sodium 2-(((1r,4r)-4-(((4-Chlorophenyl)(phenyl)carbamoyloxy)methyl)cyclohexyl)methoxy)acetate] the “off-target liabilities in a wider screen” value (95 GPCR profile) was “no additional off-target liabilities were observed”, the half-life (Dog PK (iv and oral); beagle, plasma, oral, 0.2 mg/kg, read-out: elimination half-life in dog (converted)) was 10 h and the “AUC0–inf” value (Dog PK (iv and oral); iv 0.2 mg/kg) was 1050 ± 300 ng·h/mL. The Clobs (Dog PK (iv and oral); iv 0.2 mg/kg) was 0.202 ± 0.057 L h^–1 kg^–1, the T1/2 (Dog PK (iv and oral); iv 0.2 mg/kg) was 3.54 ± 0.42 h and the “AUC0–inf” value (Dog PK (iv and oral); po 0.2 mg/kg) was 719 ± 290 ng·h/mL. For the same molecule, the Cmax (Dog PK (iv and oral); po 0.2 mg/kg) was 327 ± 16 ng/mL, the F (Dog PK (iv and oral); po 0.2 mg/kg) was 68.4% and the T1/2 (Dog PK (iv and oral); po 0.2 mg/kg) was 9.79 ± 0.94 h. The Tmax (Dog PK (iv and oral); po 0.2 mg/kg) was 0.417 ± 0.144 h, the “AUC0–inf” value (Dog PK (iv and oral); po 2 mg/kg) was 9750 ± 5270 ng·h/mL and the Cmax (Dog PK (iv and oral); po 2 mg/kg) was 3440 ± 900 ng/mL. For the same molecule, the F (Dog PK (iv and oral); po 2 mg/kg) was 92.9%, the T1/2 (Dog PK (iv and oral); po 2 mg/kg) was 5.53 ± 1.48 h and the Tmax (Dog PK (iv and oral); po 2 mg/kg) was 0.833 ± 0.289 h. The half-life [1] was over 1 h, the IC50 (hERG channel) was over 30 µM and the Ki (DP1) was 2.6 µM. The IC50 (CYP 2C19) was over 50 µM, the IC50 (CYP 1A2) was over 50 µM and the IC50 (CYP 3A4) was over 50 µM. For the same molecule, the EC50 (EP1) was over 10 µM, the “Efficacy (% vs. Iloprost) [95% CI], recombinant IP receptor cAMP” value (IP [2]) was 67 [64, 71] % and the IC50 (CYP 2D6) was over 50 µM. For the same molecule, the half-life (Rat PK (iv and oral); CD-1 (mouse), Sprague-Dawley (rat), plasma, oral, rodents, read-out: elimination half-life in rodents) was 5 to 8 h, the AUC(0-inf) (Rat PK (iv and oral); plasma) was 14600 ng·h/mL and the bioavailability (Rat PK (iv and oral); plasma) was 57%. The “AUC0–inf” value (Rat PK (iv and oral); iv 2 mg/kg (Table 4)) was 5090 ± 1620 ng·h/mL, the Clobs (Rat PK (iv and oral); iv 2 mg/kg (Table 4)) was 0.427 ± 0.163 L h^–1 kg^–1 and the T1/2 (Rat PK (iv and oral); iv 2 mg/kg (Table 4)) was 6.72 ± 0.98 h. For the same molecule, the “unbound Cmax” value (Rat PK (iv and oral); oral 10 mg/kg, calculated from the PK experiment) was “around 100 nM”, the Cmax (Rat PK (iv and oral); po 10 mg/kg (5m 10.5)) was 3700 ng/mL and the Tmax (Rat PK (iv and oral); po 10 mg/kg (5m 10.5)) was 1.5 h. It also gave a Cmax (Rat PK (iv and oral); po 10.0 mg/kg (Table 4)) of 3700 ± 1340 ng/mL, an F (Rat PK (iv and oral); po 10.0 mg/kg (Table 4)) of 57.4% and a T1/2 (Rat PK (iv and oral); po 10.0 mg/kg (Table 4)) of 5.45 ± 1.52 h. The “unbound Cmax plasma concentration” value (Rat PK (iv and oral)) was 300 nM, the T1/2 (Rat PK (iv and oral); [4]) was 6.7 h and the Clobs (Rat PK (iv and oral); [5]) was 0.43 L h^–1 kg^–1. For the same molecule, the Ki (EP2) was 0.61 µM and the IC50 (CYP 2C8) was over 50 µM.

In the case of `CC#CCC(C)[C@H](O)/C=C/[C@@H]1[C@H]2C/C(=C/CCCC(=O)O)C[C@H]2C[C@H]1O` (some centres unmarked) [iloprost], the EC50 (EP1) is reported as 0.047 µM, the “EP1 % I.A” value (EP1) is reported as 48% and the “Efficacy (% vs. Iloprost) [95% CI], recombinant IP receptor cAMP” value (IP [2]) is reported as 100%.

With `O=C(O)COC[C@H]1CC[C@H](COC(=O)N(c2ccccc2)c2cccc(F)c2)CC1` [5g, 2-(((1r,4r)-4-(((3-Fluorophenyl)(phenyl)carbamoyloxy)methyl)cyclohexyl)methoxy)acetic Acid] the “off-target liabilities in a wider screen” value (95 GPCR profile) was “no additional off-target liabilities were observed”, the half-life [1] was over 1 h and the IC50 (hERG channel) was over 30 µM. It also gave a Ki (DP1) of 1.85 µM, an IC50 (CYP 2C19) of over 50 µM and an IC50 (CYP 1A2) of over 50 µM. For the same molecule, the IC50 (CYP 3A4) was over 50 µM, the IC50 (CYP 2D6) was over 50 µM and the AUC(0-inf) (Rat PK (iv and oral); plasma) was 7900 ng·h/mL. The bioavailability (Rat PK (iv and oral); plasma) was 39%, the Cmax (Rat PK (iv and oral); po 10 mg/kg (5m 10.5)) was 3400 ng/mL and the Tmax (Rat PK (iv and oral); po 10 mg/kg (5m 10.5)) was 0.3 h. The “unbound Cmax plasma concentration” value (Rat PK (iv and oral)) was 300 nM, the T1/2 (Rat PK (iv and oral); [4]) was 3.4 h and the Clobs (Rat PK (iv and oral); [5]) was 1.2 L h^–1 kg^–1. The Ki (EP2) was 0.57 µM, the Ki (IP [3]) was 0.007 µM and the IC50 (CYP 2C8) was over 50 µM.
